# Patent US20130095059A1, “INHALED NO DONOR KMUPS DERIVATIVE PREVENTING ALLERGIC PULMONARY VASCULAR AND BRONCHIAL INFLAMMATION VIA SUPPRESSED CYTOKINES, INOS AND INFLAMMATORY CELL COUNTS IN ASTHMA MODEL” (priority 2007, published 2013)
# Assays:
# 5-HTT = 5-HTT expression in pulmonary artery and lung of MCT-treated rats; assay type: in vivo; conditions: 21 days after MCT
# Experimental: The experiments were performed in adult male Wistar rats (300 to 350 g) in accordance with institutional guidelines after approval by the ethical review committee. PAH development and pulmonary expression of 5-HTT were examined in rats after 60 mg/kg single injection (i.p.) of monocrotaline (MCT). To assess the potential preventive effect of KMUP-1 on MCT-induced PAH and associated proliferation, we assigned rats at random to 2 groups of 8 animals which received KMUP-1 at 5 mg/kg/day p.o or 1 mg/kg/day i.p. All treatments were given once a day for 3 weeks after a single MCT injection (60 mg/kg i.p.) (Abe et al., 2004). On day 21, rats were anesthetized and pulmonary artery blood pressure (MPAP) was recorded as previously described. Lung tissues were dissected for Western blotting and immunohistochemistry.
# For 5-HTT immunostaining, the lung slides were dewaxed in 100% xylene, and the sections were then rehydrated by successive immersion first in decreasing ethanol concentrations (100%, 90%, 80%, 50% and 30%) and then in water. Endogenous peroxidase activity was blocked using H2O2 in methanol (0.3% vol/vol) for 10 min. After three PBS washes, sections were pre-incubated in PBS supplemented with 3% (wt/vol) BSA for 30 min, then incubated overnight at 4° C. with goat polyclonal anti-5-HTT antibody (Abcam Biotechnology, Cambridge, UK) diluted to 1:1000 in 1×PBS, 0.02% BSA. […]
# RhoA = assay: 5-HT-induced RhoA translocation in PASMCs; assay type: cell-based, Wistar rats; conditions: 24 h treatment, 1-100 μM
# Experimental: Previous reports have shown that the active form of RhoA is translocated from the cytosol to the plasma membrane, where it activates Rho kinase. Therefore, the membrane/cytosol ratio of RhoA is considered a measure of RhoA activity. The cytosol and membrane protein of PASMCs were extracted with a CNM (cytosol, nuclear, membrane) kit. To assess membrane trans-location of RhoA, protein in membrane and cytosolic fractions was determined by standard Western blot analysis using mouse monoclonal anti-RhoA antibody (1:1000 dilution, Santa Cruz Biotechnology) and a peroxidase-labeled anti-mouse immunoglobulin (Ig) G antibody (1:1000 dilution, Santa Cruz Biotechnology, CA, USA). The relative density of membrane to cytosolic RhoA was determined using NIH imaging software.
# The expression of RhoA/ROCK and phosphorylation of ERK1/2 and AKT kinase in PASMCs were assessed by incubating the PASMCs with 5-HT (10 μM) for 15 min (peak time for RhoA/ROCK, ERK1/2 and AKT phosphorylation) and 5-HTT for 10 min (peak time for 5-HTT) after KMUP-1 (1-100 μM) was added to the culture of PASMCs for 24 h.
# PASMCs = assay: Microculture tetrazolium test (MTT), PASMCs proliferation; assay type: cell-based, Wistar rats; conditions: 1-100 μM; 5-HT 10 μM 24 h
# Experimental: At the end of this period, MTT (2 g/L) was added to each well, and incubation proceeded at 37° C. for 4 h. Thereafter, the medium was removed and the cells were solubilized in 150 μL DMSO.
# MMP-9 = assay: Ovalbumine model, MMP-9 expression, zymography and immunostaining; assay type: in vivo, BALB/c mice
# Experimental: (§1) In this long-term experiment, 6-8 week old BALB/c female mice were sensitized on days 1 and 8 by intra-peritoneal injection (i.p.) of ovalbumine (10 μg) (Sigma-Aldrich, Schnelldorf, Germany) adsorbed to 2 mg aluminum hydroxide (AlumInject; Perbio, Erembodegem, Belgium). Mice were divided into three groups. In Group 1, a control group was only exposed to saline nebulization by aerosol. The other 2 groups were subjected to ovalbumine (1%) nebulization. Before each challenge with ovalbumine, mice were either exposed to saline nebulization (Group 2) or KMUP-1 nebulization (5 mM) for 30 min by aerosol (Group 3).
# The gelatinolytic activity of MMP-9 was measured by gelatin zymography as described previously (Cataldo D D, et al., 2002). Briefly, BALF (10 μl) was subjected to electrophoresis in 10% polyacrylamide gel containing gelatin (1 mg/ml). The gel was washed in 2.5% Triton X-100 to permit re-naturation of gelatinases and stained with Coomassie blue after overnight incubation. Destaining visualized clear zones of lysis against a blue background indicated the gelatinase activity (Hibbs, M S, et al., 1985).
# The lung tissues were homogenized, washed with PBS and incubated in lysis buffer in addition to a protease inhibitor cocktail (Sigma, St. Louis, Mo.) to obtain extracts of lung proteins. A Western blot analysis was performed as described previously (Wu B N, et al., 2006). The samples were loaded to 10% SDS-PAGE gels and were separated at 120 V for 90 min. The blots were incubated with anti-eNOS antibody diluted at a ratio of 1:500, anti-sGCα1 antibody diluted at a ratio of 1:2000, anti-PKG antibody diluted at a ratio of 1:500, anti-VCAM-1 antibody diluted at a ratio of 1:500, anti-ICAM-1 antibody diluted at a ratio of 1:500, and anti-MMP-9 antibody diluted at a ratio of 1:600 overnight at 4° C. The membranes were stripped and re-blotted with anti-actin antibody (Sigma, St. Louis, Mo.) to verify the equal loading of protein in each lane.
# Immunohistochemical analysis of eNOS enhancement by KMUP-1 was performed as follows. The lungs were perfused with saline followed by 10% formalin and then placed in 10% formalin for paraffin embedding. The lung tissues were cut into […] sections onto slides, dewaxed in 100% xylene, and then re-hydrated in graded alcohol solutions. Throughout the procedures, slides were washed as appropriate in PBS. Antigen retrieval was performed by microwave treatment for eNOS immunostaining. Sections were treated with 3% H2O2 (10 min) to inhibit endogenous peroxidases and incubated with normal serum (60 min) to reduce nonspecific binding of secondary antibodies. Sections were then incubated at 4° C. overnight with eNOS antibodies. After washing off unbounded primary antibodies, sections were incubated with secondary biotinylated antibodies against mouse or rabbit (DAKO Co., Japan) (60 min), followed by incubation in avidin/biotin/horseradish peroxidase complex (DAKO Co., Japan) (30 min) Subsequently, peroxidase activity was visualized by incubation (3 min) with 0.05% 3,3′-diaminobenzidine (DAKO Co., Japan), which gives a brown reaction product. The reaction was stopped by washing with water. The slides were counterstained with hematoxylin. For immunostaining of MMP-9 in lung tissue, the de-paraffinized 3-5 μm sections of lung tissue was performed as above eNOS, but using MMP-9 antibody.
# IL-5 = assay: Ovalbumine model, plasma IL-5 (ELISA); assay type: in vivo, mice; conditions: mice sensitized and challenged by ovalbumine
# Experimental: as §1
compound,measurement,setting,value
"Cn1c(=O)c2c(ncn2CCN2CCN(c3ccccc3Cl)CC2)n(C)c1=O [KMUP-1, 7-[2-[4-(2-chlorophenyl)piperazinyl]ethyl]-1,3-dimethylxanthine]",5-HTT protein expression in lung tissue (Western blotting),5-HTT,significantly reduced
same,5-HTT expression in pulmonary artery (immunochemistry),5-HTT; 5 mg/kg p.o. and 1 mg/kg i.p.,significantly decreased
same,5-HT-induced RhoA membrane association,RhoA,dose-dependently reversed
same,PASMCs proliferation (MTT assay),PASMCs,dose-dependently inhibited
same,increased MMP-9 expression by ovalbumine sensitization,"MMP-9; 28-day experiment, nebulization",significantly reduced
same,zymography of MMP-9,"MMP-9; BALF, versus ovalbumine",decreased
same,MMP-9 positive cells (immunostaining),MMP-9; ovalbumine-sensitized and -challenged mice,hardly detected
same,IL-5 levels in the plasma,IL-5,inhibited
